The term IC50 denotes the concentration that gives 50% inhibition.

Here are results for 26 compounds from patent publication US12624023B2, “Sulfonylurea derivatives and uses thereof” (NodThera Limited, priority 2019, dated 2026).

Assay [1] deals with IL-1β release upon NLRP3 activation in peripheral blood mononuclear cells (PBMC). The assay can be described thus: PBMC IC50 determination assay (IL-1β release, LPS priming + ATP stimulation, HTRF). The assay is classed as cell-based. The note with it: PBMC from buffy coats; LPS 1 μg/ml 3 h, compound 30 min, ATP 5 mM 1 h; IL-1β by HTRF. The method, then:
The compounds of the present disclosure were tested for their inhibitory activity against IL-1β release upon NLRP3 activation in peripheral blood mononuclear cells (PBMC).
PBMC were isolated from buffy coats by density gradient centrifugation on Histopaque-1077 (Sigma, cat no. 10771). Isolated cells were seeded into the wells (280,000 cells/well) of a 96-well plate and incubated for 3 h with lipopolysaccharide (LPS, 1 μg/ml diluted 1000× from a 1 mg/ml stock solution). The compounds of the present disclosure were added (a single compound per well) and the cells were incubated for 30 min. Next, the cells were stimulated with ATP (5 mM final concentration diluted 20× from a 100 mM stock solution) for 1 h and the cell culture media from the wells were collected for further analysis.
The release of IL-1β into the media was determined by quantitative detection of IL-1β in the media using HTRF®, CisBio cat. No. 62HIL1BPEH. Briefly, cell culture supernatant were dispensed directly into the assay plate containing antibodies labelled with the HTRF® donor and acceptor. A microplate spectrophotometer (BMG) was used to detect signals at 655 nm and 620 nm. The detection range of IL-1β HTRF® was […].
On the technique in general: TR-FRET usually uses a lanthanide donor and a delayed reading to cut background.

Assay [2] concerns IL-1β release upon NLRP3 activation in human whole blood. The assay can be described thus: Whole blood (WB) assay (IL-1β release, LPS priming + ATP stimulation, HTRF). The assay is classed as cell-based. The note with it: heparin, diluted 9:5 with media, LPS 1 μg/ml 3 h, compound 30 min, ATP 5 mM 1 h, IL-1β by HTRF. How it is done: The compounds of the present disclosure were tested for their inhibitory activity against IL-1β release upon NLRP3 activation in human whole blood.
Whole blood was drawn from single healthy donors and treated with sodium heparin anticoagulant. Blood was diluted with cell culture media at a 9:5 ratio, seeded in a 96-well plate and incubated for 3 h with lipopolysaccharide (LPS, 1 μg/ml final concentration diluted 1000× from a 1 mg/ml stock solution). The compounds of the present disclosure were added (a single compound concentration per well) and the blood was incubated for 30 min. Next, the blood was stimulated with ATP (5 mM final concentration diluted 20× from a 100 mM stock solution) for 1 h and the cell culture media from the wells were collected for further analysis.
The release of IL-1β into the media was determined by quantitative detection of IL-1β in the media using HTRF®, CisBio cat. No. 62HIL1BPEH. Briefly, cell culture supernatant were diluted as appropriate to bring IL-1β levels within the HTRF® detection range ([…]) and subsequently dispensed into the assay plate containing antibodies labelled with the HTRF® donor and acceptor. A microplate spectrophotometer (BMG) was used to detect signals at 655 nm and 620 nm.

For the compound `Cc1csc(C)c1NC(=O)NS(=O)(=O)N(c1cnn(C)c1)C1CCOCC1` [Compound 1, 3-(2,4-Dimethylthiophen-3-yl)-1-[(1-methyl-1H-pyrazol-4-yl)(oxan-4-yl)-sulfamoyl]urea], the IC50 in assay [1] is 1000 to 5000 nM; in assay [2], 3000 to 10000 nM.
The like results for `Cc1cc(NC(=O)NS(=O)(=O)N(c2cnn(C)c2)C2CCOCC2)c(C)s1` [Compound 2, 3-(2,5-Dimethylthiophen-3-yl)-1-[(1-methyl-1H-pyrazol-4-yl)(oxan-4-yl)sulfamoyl]urea] were, in that order, 500 to 1000 nM and 3000 to 10000 nM.
The corresponding values for `Cc1sc2ccccc2c1NC(=O)NS(=O)(=O)N(c1cnn(C)c1)C1CCOCC1` [Compound 3, 3-(2-Methyl-1-benzothiophen-3-yl)-1-[(1-methyl-1H-pyrazol-4-yl)(oxan-4-yl)sulfamoyl]urea] are 1000 to 5000 nM and > 20000 nM.
The corresponding values for `CCc1cc(NC(=O)NS(=O)(=O)N(c2cnn(C)c2)C2CCOCC2)c(CC)s1` [Compound 4, 3-(2,5-Diethylthiophen-3-yl)-1-[(1-methyl-1H-pyrazol-4-yl)(oxan-4-yl)sulfamoyl]urea] are 1000 to 5000 nM and 10000 to 20000 nM.
Regarding `Cn1cc(N(C2CCOCC2)S(=O)(=O)NC(=O)Nc2cc(Cl)sc2Cl)cn1` [Compound 5, 3-(2,5-Dichlorothiophen-3-yl)-1-[(1-methyl-1H-pyrazol-4-yl)(oxan-4-yl)sulfamoyl]urea], the half-maximal inhibitory concentration (IC50) in assay [1] was 5000 to 10000 nM; in assay [2], > 20000 nM.
The like results for `CC(C)c1cc(NC(=O)NS(=O)(=O)N(c2cnn(C)c2)C2CCOCC2)c(C(C)C)s1` [Compound 6, 3-[2,5-Bis(propan-2-yl)thiophen-3-yl]-1-[(1-methyl-1H-pyrazol-4-yl)(oxan-4-yl)sulfamoyl]urea] were, in that order, 500 to 1000 nM and > 20000 nM.
The corresponding values for `CCc1csc(CC)c1NC(=O)NS(=O)(=O)N(c1cnn(C)c1)C1CCOCC1` [Compound 7, 3-(2,4-Diethylthiophen-3-yl)-1-[(1-methyl-1H-pyrazol-4-yl)(oxan-4-yl)sulfamoyl]urea] are 1000 to 5000 nM and 10000 to 20000 nM.
The like results for `Cc1cc(NC(=O)NS(=O)(=O)N(c2cnn(C)c2)C2CCCN(C)C2)c(C)s1` (stereo not drawn) [Compound 8, 3-(2,5-Dimethylthiophen-3-yl)-1-[(1-methyl-1H-pyrazol-4-yl)(1-methyl-piperidin-3-yl)sulfamoyl]urea] were, in that order, 1000 to 5000 nM and 1000 to 3000 nM.
Take `Cc1csc(C)c1NC(=O)NS(=O)(=O)N(c1cnn(C)c1)C1CCCN(C)C1` (stereo not drawn) [Compound 9, 3-(2,4-Dimethylthiophen-3-yl)-1-[(1-methyl-1H-pyrazol-4-yl)(1-methyl-piperidin-3-yl)sulfamoyl]urea]: the IC50 was in the range of 1000 to 5000 nM in assay [1] and 3000 to 10000 nM in assay [2].
The corresponding values for `Cc1cc(C)c(NC(=O)NS(=O)(=O)N(c2cnn(C)c2)C2CCCN(C)C2)s1` (stereo not drawn) [Compound 10, 3-(3,5-Dimethylthiophen-2-yl)-1-[(1-methyl-1H-pyrazol-4-yl)(1-methyl-piperidin-3-yl)sulfamoyl]urea] are 1000 to 5000 nM and 10000 to 20000 nM.
The like results for `CC(C)c1cc(NC(=O)NS(=O)(=O)N(c2cnn(C)c2)C2CCCN(C)C2)c(C(C)C)s1` (stereo not drawn) [Compound 11, 3-[2,5-Bis(propan-2-yl)thiophen-3-yl]-1-[(1-methyl-1H-pyrazol-4-yl)(1-methyl-piperidin-3-yl)sulfamoyl]urea] were, in that order, < 100 nM and < 1000 nM.
The like results for `Cc1sc2ccccc2c1NC(=O)NS(=O)(=O)N(c1cnn(C)c1)C1CCCN(C)C1` (stereo not drawn) [Compound 12, 3-(2-Methyl-1-benzothiophen-3-yl)-1-[(1-methyl-1H-pyrazol-4-yl)(1-methyl-piperidin-3-yl)sulfamoyl]urea] were, in that order, 500 to 1000 nM and 1000 to 3000 nM.
With `CCc1cc(NC(=O)NS(=O)(=O)N(c2cnn(C)c2)C2CCCN(C)C2)c(CC)s1` (stereo not drawn) [Compound 13, 3-(2,5-Diethylthiophen-3-yl)-1-[(1-methyl-1H-pyrazol-4-yl)(1-methylpiperidin-3-yl)sulfamoyl]urea], the IC50 in assay [1] was < 100 nM; in assay [2], < 1000 nM.
Turning to `CCc1csc(CC)c1NC(=O)NS(=O)(=O)N(c1cnn(C)c1)C1CCCN(C)C1` (stereo not drawn) [Compound 14, 3-(2,4-Diethylthiophen-3-yl)-1-[(1-methyl-1H-pyrazol-4-yl)(1-methylpiperidin-3-yl)sulfamoyl]urea], the figures for the IC50 in assay [1] and in assay [2] were < 100 nM and 1000 to 3000 nM, respectively.
The corresponding values for `Cc1sc(C)c(NC(=O)NS(=O)(=O)N(c2cnn(C)c2)C2CCCN(C)C2)c1C` (stereo not drawn) [Compound 15, 1-[(1-Methyl-1H-pyrazol-4-yl)(1-methylpiperidin-3-yl)sulfamoyl]-3-(2,4,5-trimethylthiophen-3-yl)urea] are 500 to 1000 nM and > 20000 nM.
The corresponding values for `CC(C)c1csc(C(C)C)c1NC(=O)NS(=O)(=O)N(c1cnn(C)c1)C1CCCN(C)C1` (stereo not drawn) [Compound 16, 3-[2,4-Bis(propan-2-yl)thiophen-3-yl]-1-[(1-methyl-1H-pyrazol-4-yl)(1-methyl-piperidin-3-yl)sulfamoyl]urea] are 100 to 500 nM and 1000 to 3000 nM.
As for `Cc1csc(NC(=O)NS(=O)(=O)N(c2cnn(C)c2)C2CCCN(C)C2)c1C` (stereo not drawn) [Compound 17, 3-(3,4-Dimethylthiophen-2-yl)-1-[(1-methyl-1H-pyrazol-4-yl)(1-methyl-piperidin-3-yl)sulfamoyl]urea], in assay [1], the half-maximal inhibitory concentration (IC50) was 5000 to 10000 nM.
On to `CC(C)c1cc(NC(=O)NS(=O)(=O)N(CCN(C)C)c2cnn(C)c2)c(C(C)C)s1` [Compound 18, 3-[2,5-Bis(propan-2-yl)thiophen-3-yl]-1-{[2-(dimethylamino)ethyl](1-methyl-1H-pyrazol-4-yl)sulfamoyl}urea], for which the figures for the IC50 in assay [1] and in assay [2] were 100 to 500 nM and 1000 to 3000 nM, respectively.
The corresponding values for `CCc1cc(NC(=O)NS(=O)(=O)N(CCN(C)C)c2cnn(C)c2)c(CC)s1` [Compound 19, 3-(2,5-Diethylthiophen-3-yl)-1-{[2-(dimethylamino)ethyl](1-methyl-1H-pyrazol-4-yl)sulfamoyl}urea] are 100 to 500 nM and 1000 to 3000 nM.
The like results for `CCc1cc(NC(=O)NS(=O)(=O)N(c2cnn(C)c2)C2CCCN(C)C2)c(CC)o1` (stereo not drawn) [Compound 28, 3-(2,5-Diethylfuran-3-yl)-1-[(1-methyl-1H-pyrazol-4-yl)(1-methylpiperidin-3-yl)sulfamoyl]urea] were, in that order, 100 to 500 nM and 1000 to 3000 nM.
As for `CCc1nc(NC(=O)NS(=O)(=O)N(c2cnn(C)c2)C2CCCN(C)C2)c(CC)s1` (stereo not drawn) [Compound 31, 3-(2,5-Diethyl-1,3-thiazol-4-yl)-1-[(1-methyl-1H-pyrazol-4-yl)(1-methyl-piperidin-3-yl)sulfamoyl]urea], in assay [1], the IC50 lay within 5000 to 10000 nM.
On to `CCc1cc(NC(=O)NS(=O)(=O)N(C[C@@H]2C[C@@H](F)CN2C)c2cnn(C(C)C)c2)c(CC)o1` [Compound 63, 3-(2,5-Diethylfuran-3-yl)-1-({[(2S,4R)-4-fluoro-1-methylpyrrolidin-2-yl]methyl}[1-(propan-2-yl)-1H-pyrazol-4-yl]sulfamoyl)urea], for which the IC50 in assay [1] is 1000 to 5000 nM.
For `CCc1cc(NC(=O)NS(=O)(=O)N(C2CCOCC2)C2CCCN(C)C2)c(CC)s1` (stereo not drawn) [Compound 68, 3-(2,5-Diethylthiophen-3-yl)-1-[(1-methylpiperidin-3-yl)(oxan-4-yl)sulfamoyl]-urea], the IC50 in assay [1] lay in the range of 5000 to 10000 nM.
Same read-out and setting: under `CCc1cc(NC(=O)NS(=O)(=O)N(CCN(C)C)c2cnn(C)c2)c(CC)o1` [Compound 72, 3-(2,5-Diethylfuran-3-yl)-1-{[2-(dimethylamino)ethyl](1-methyl-1H-pyrazol-4-yl)sulfamoyl}urea] stands 1000 to 5000 nM.
The same measure, in the same setting: under `CCc1cc(NC(=O)NS(=O)(=O)N(CC2CCCO2)c2cnn(C)c2)c(CC)o1` (stereo not drawn) [Compound 74, 1-(2,5-Diethylfuran-3-yl)-3-[(1-methyl-1H-pyrazol-4-yl)[(oxolan-2-yl)methyl]-sulfamoyl]urea] stands 1000 to 5000 nM; under `Cc1cc(NC(=O)NS(=O)(=O)N(c2cnn(C3CC3)c2)[C@H]2CCCN(C)C2)c(C2CC2)s1` [Compound 105, 1-[(1-Cyclopropyl-1H-pyrazol-4-yl)[(3S)-1-methylpiperidin-3-yl]sulfamoyl]-3-(2-cyclopropyl-5-methylthiophen-3-yl)urea], 100 to 500 nM.
